Data: ChEMBL document CHEMBL4828776, “Acremopeptaibols A-F, 16-Residue Peptaibols from the Sponge-Derived Acremonium sp. IMB18-086 Cultivated with Heat-Killed Pseudomonas aeruginosa” (J Nat Prod, 2021)
Converted amounts (≈) assume the structure as drawn. Non-standard residues stand in square brackets, D forms with d. Residues, ends and D or L forms follow the SMILES beside them. Hyp = O=C(O)[C@@H]1C[C@@H](O)CN1; Phe(ol) = N[C@H](CO)Cc1ccccc1; Aib = CC(C)(N)C(=O)O

How the values were obtained:
HepG2 = assay: Cytotoxicity against human HepG2 cells assessed as reduction in cell viability incubated for 48 hrs by CCK8 assay; format: functional, cell-based; settings: HepG2, 48 h
Staphylococcus aureus [1] = assay: Antibacterial activity against Staphylococcus aureus ATCC 25923 assessed as inhibition of bacterial growth incubated for 16 hrs by microdilution method; format: functional
A549 = assay: Cytotoxicity against human A549 cells assessed as reduction in cell viability incubated for 48 hrs by CCK8 assay; format: functional, cell-based; settings: A549, 48 h
Bacillus subtilis = assay: Antibacterial activity against Bacillus subtilis ATCC 6633 assessed as inhibition of bacterial growth incubated for 16 hrs by microdilution method; format: functional
Pseudomonas aeruginosa = assay: Antibacterial activity against Pseudomonas aeruginosa ATCC 27853 assessed as inhibition of bacterial growth incubated for 16 hrs by microdilution method; format: functional
Enterococcus faecalis = assay: Antibacterial activity against vancomycin-resistant Enterococcus faecalis 21-07 assessed as inhibition of bacterial growth incubated for 16 hrs by microdilution method; format: functional
Staphylococcus aureus [2] = assay: Antibacterial activity against Staphylococcus aureus ATCC 29213 assessed as inhibition of bacterial growth incubated for 16 hrs by microdilution method; format: functional
Candida albicans = assay: Antifungal activity against Candida albicans ATCC 10231 assessed as inhibition of fungal growth incubated for 16 hrs by microdilution method; format: functional
Escherichia coli = assay: Antibacterial activity against Escherichia coli ATCC 25922 assessed as inhibition of bacterial growth incubated for 16 hrs by microdilution method; format: functional
[3] = test system: Staphylococcus epidermidis; assay: Antibacterial activity against Staphylococcus epidermidis ATCC 12228 assessed as inhibition of bacterial growth incubated for 16 hrs by microdilution method; format: functional
Staphylococcus aureus [4] = assay: Antibacterial activity against methicillin-resistant Staphylococcus aureus ATCC 33591 assessed as inhibition of bacterial growth incubated for 16 hrs by microdilution method; format: functional

Compound	IC50 (HepG2) [nM]	MIC (Staphylococcus aureus [1]) [µg/mL]	IC50 (A549) [nM]	MIC (Bacillus subtilis) [µg/mL]	MIC (Pseudomonas aeruginosa) [µg/mL]	MIC (Enterococcus faecalis) [µg/mL]	MIC (Staphylococcus aureus [2]) [µg/mL]	MIC (Candida albicans) [µg/mL]	MIC (Escherichia coli) [µg/mL]	MIC [3] [µg/mL]	MIC (Staphylococcus aureus [4]) [µg/mL]
CC[C@@](C)(NC(=O)[C@H](CCC(N)=O)NC(=O)C(C)(C)NC(=O)[C@H](Cc1c[nH]c2ccccc12)NC(C)=O)C(=O)NCC(=O)NC(C)(C)C(=O)N[C@@H](C)C(=O)NC(C)(C)C(=O)NC(C)(C)C(=O)NCC(=O)N[C@@H](CCC(N)=O)C(=O)NC(C)(C)C(=O)N1C[C@H](O)C[C@H]1C(=O)NC(C)(C)C(=O)N1CCC[C@H]1C(=O)N[C@H](CO)Cc1ccccc1	≥ 50000	> 128	≥ 50000	64 (≈ 39 µM)	> 128	> 128	> 128	64 (≈ 39 µM)	> 128	> 128	> 128
CC(/C=C/[C@@]1(C)[C@H](C)CC[C@@H](O)[C@@H]1C)=C\Cc1c(O)c(Cl)c(C)c(C=O)c1O	900	16 (≈ 39.3 µM)	900	32 (≈ 78.6 µM)	> 128	> 128	> 128	> 128	> 128	16 (≈ 39.3 µM)	> 128
COLISTIN		64		16	1	> 128	128		1	16	128
C/C(=C\Cc1c(O)c(Cl)c(C)c(C=O)c1O)[C@H](O)C[C@@]1(C)[C@H](C)CCC(=O)[C@@H]1C	900	128 (≈ 303 µM)	900	> 128	> 128	> 128	> 128	> 128	> 128	> 128	> 128
C/C(=C\Cc1c(O)c(Cl)c(C)c(C=O)c1O)CC/C=C(\C)[C@@H]1CC(=O)C(C)(C)O1 [ASCOFURANONE]	900	4 (≈ 9.5 µM)	900	16 (≈ 38 µM)	> 128	> 128	16 (≈ 38 µM)	32 (≈ 76 µM)	> 128	4 (≈ 9.5 µM)	32 (≈ 76 µM)
CC(/C=C/[C@@]1(C)[C@H](C)CCC(=O)[C@@H]1C)=C\Cc1c(O)c(Cl)c(C)c(C=O)c1O [ASCOCHLORIN]	900	1 (≈ 2.47 µM)	900	2 (≈ 4.94 µM)	> 128	> 128	16 (≈ 39.5 µM)	4 (≈ 9.88 µM)	> 128	0.25 (≈ 0.617 µM)	> 128
CN[C@H](CC(C)C)C(=O)N[C@H]1C(=O)N[C@@H](CC(N)=O)C(=O)N[C@H]2C(=O)N[C@H]3C(=O)N[C@H](C(=O)N[C@H](C(=O)O)c4cc(O)cc(O)c4-c4cc3ccc4O)[C@H](O)c3ccc(c(Cl)c3)Oc3cc2cc(c3O[C@@H]2O[C@H](CO)[C@@H](O)[C@H](O)[C@H]2O[C@H]2C[C@](C)(N)[C@H](O)[C@H](C)O2)Oc2ccc(cc2Cl)[C@H]1O [VANCOMYCIN]				0.125 (≈ 0.0863 µM)	> 128	16 (≈ 11 µM)			> 128		
CC[C@@](C)(NC(=O)[C@H](CCC(N)=O)NC(=O)C(C)(C)NC(=O)[C@H](Cc1c[nH]c2ccccc12)NC(C)=O)C(=O)NCC(=O)NC(C)(C)C(=O)N[C@@H](C)C(=O)NC(C)(C)C(=O)NC(C)(C)C(=O)NCC(=O)N[C@@H](CCC(N)=O)C(=O)N[C@](C)(CC)C(=O)N1C[C@H](O)C[C@H]1C(=O)NC(C)(C)C(=O)N1CCC[C@H]1C(=O)N[C@H](CO)Cc1ccccc1	≥ 50000	64 (≈ 38.7 µM)	≥ 50000	16 (≈ 9.67 µM)	> 128	> 128	64 (≈ 38.7 µM)	32 (≈ 19.3 µM)	> 128	> 128	64 (≈ 38.7 µM)
NYSTATIN								> 128			
CC[C@@](C)(NC(=O)[C@H](CCC(N)=O)NC(=O)CNC(=O)C(C)(C)NC(=O)C(C)(C)NC(=O)[C@H](C)NC(=O)C(C)(C)NC(=O)CNC(=O)C(C)(C)NC(=O)[C@H](CCC(N)=O)NC(=O)C(C)(C)NC(=O)[C@H](Cc1c[nH]c2ccccc12)NC(C)=O)C(=O)N1C[C@H](O)C[C@H]1C(=O)NC(C)(C)C(=O)N1CCC[C@H]1C(=O)N[C@H](CO)Cc1ccccc1	≥ 50000	128 (≈ 78 µM)	≥ 50000	32 (≈ 19.5 µM)	> 128	> 128	128 (≈ 78 µM)	64 (≈ 39 µM)	> 128	> 128	128 (≈ 78 µM)
CC[C@@](C)(NC(=O)CNC(=O)[C@@](C)(CC)NC(=O)[C@H](CCC(N)=O)NC(=O)C(C)(C)NC(=O)[C@H](Cc1c[nH]c2ccccc12)NC(C)=O)C(=O)N[C@@H](C)C(=O)NC(C)(C)C(=O)NC(C)(C)C(=O)NCC(=O)N[C@@H](CCC(N)=O)C(=O)N[C@](C)(CC)C(=O)N1C[C@H](O)C[C@H]1C(=O)NC(C)(C)C(=O)N1CCC[C@H]1C(=O)N[C@H](CO)Cc1ccccc1	≥ 50000	64 (≈ 38.3 µM)	≥ 50000	16 (≈ 9.59 µM)	> 128	> 128	32 (≈ 19.2 µM)	16 (≈ 9.59 µM)	> 128	> 128	64 (≈ 38.3 µM)
CC[C@@](C)(NC(=O)CNC(=O)[C@@](C)(CC)NC(=O)[C@H](CCC(N)=O)NC(=O)C(C)(C)NC(=O)[C@H](Cc1c[nH]c2ccccc12)NC(C)=O)C(=O)N[C@@H](C)C(=O)NC(C)(C)C(=O)NC(C)(C)C(=O)NCC(=O)N[C@@H](CCC(N)=O)C(=O)NC(C)(C)C(=O)N1C[C@H](O)C[C@@H]1C(=O)NC(C)(C)C(=O)N1CCC[C@H]1C(=O)N[C@H](CO)Cc1ccccc1	≥ 50000	> 128	≥ 50000	> 128	> 128	> 128	> 128	64 (≈ 38.7 µM)	> 128	> 128	> 128
CC(=O)N[C@@H](Cc1c[nH]c2ccccc12)C(=O)NC(C)(C)C(=O)N[C@@H](CCC(N)=O)C(=O)NC(C)(C)C(=O)NCC(=O)NC(C)(C)C(=O)N[C@@H](C)C(=O)NC(C)(C)C(=O)NC(C)(C)C(=O)NCC(=O)N[C@@H](CCC(N)=O)C(=O)NC(C)(C)C(=O)N1C[C@H](O)C[C@H]1C(=O)NC(C)(C)C(=O)N1CCC[C@H]1C(=O)N[C@H](CO)Cc1ccccc1 (Ac-W[Aib]Q[Aib]G[Aib]A[Aib][Aib]GQ[Aib][Hyp][Aib]P[Phe(ol)])	≥ 50000	> 128	≥ 50000	> 128	> 128	> 128	> 128	> 128	> 128	> 128	> 128
